# pIC50, pKd: −log10 of the molar value. Active and inactive are the calls of the source. The rule behind the calls is not given here.
# Tests used:
# [1] = target: Cyclin-dependent kinase 9 (Mus musculus) (UniProt Q99J95); experiment: In-vivo inhibition of CDK9 in CB17 SCID mouse xenografted with human NOMO1 cells assessed as reduction in RNA Polymerase 2 CTD phosphorylation at Ser2 residues administered intraperitoneally twice at 2 hrs dosing interval with 2 days on and 5 days off dosing schedule by Western blot analysis; format: functional; conditions: dose 5-15 mg/kg
# [2] = tested on: NOMO-1; experiment: Antitumor activity against human NOMO1 cells xenografted in CB17 SCID mouse assessed as cell death at 5 mg/kg, ip BID administered at 2 hrs dosing interval with 2 days on and 5 days off dosing schedule; format: functional, organism-based
# [3] = tested on: MV4-11; experiment: Antitumor activity against human MV4-11 cells xenografted in CB17 SCID mouse assessed as tumor regression at 15 mg/kg, ip BID administered at 2 hrs dosing interval with 2 days on and 5 days off dosing schedule observed for 125 days; format: functional; conditions: time 125 day
# [4] = tested on: MV4-11; experiment: Antitumor activity against human MV4-11 cells xenografted in CB17 SCID mouse assessed as tumor growth inhibition at 5 mg/kg, ip BID administered at 2 hrs dose interval with 2 days on and 5 days off dosing schedule measured 33 days post initial dose; format: functional; conditions: MV4-11, ip, 792 h, time 33 day, read-out: TGI
# [5] = Drug metabolism in human liver microsomes assessed as (1S,3R)-3-acetamido-N-(5-chloro-4-(5-(3-hydroxy-2,2-dimethylpropyl)-1H-pyrazol-4-yl)pyridin-2-yl)cyclohexanecarboxamide formation at 10 uM measured after 1 hr in presence of NADPH by LC-UV-MS analysis; format: ADME, Microsome
# [6] = Drug metabolism in human liver microsome assessed as (1S,3R)-3-acetamido-N-(5-chloro-4-(6-hydroxy-5,5-dimethyl-5,6-dihydro-4H-pyrrolo[1,2-b]pyrazol-3-yl)pyridin-2-yl)cyclohexanecarboxamide formation at 10 uM measured after 1 hr in presence of NADPH by LC-UV-MS analysis; format: ADME; conditions: microsomes
# [7] = Drug metabolism in human hepatocytes assessed as (1S,3R)-3-acetamido-N-(5-chloro-4-(6-hydroxy-5,5-dimethyl-5,6-dihydro-4H-pyrrolo[1,2-b]pyrazol-3-yl)pyridin-2-yl)cyclohexanecarboxamide metabolite formation; format: ADME, cell-based, Hepatocyte
# [8] = Half-life in Beagle dog at 0.23 umol/kg, iv administered over 0.25 hrs formulated as solution in 10% DMSO/90% water; format: ADME, organism-based, Canis lupus familiaris; conditions: in vivo, dose 0.23 µmol/kg
# [9] = Half-life in mouse at 2.3 umol/kg, iv formulated as solution; format: ADME, organism-based; conditions: in vivo, dose 2.3 µmol/kg
# [10] = Intrinsic clearance in monkey cryopreserved hepatocytes assessed per million cells […]; format: ADME, cell-based, Macaca mulatta, Hepatocyte; conditions: rhesus monkey, read-out: CLH
# [11] = target: Casein kinase I isoform gamma-1 (Homo sapiens, UniProt Q9HCP0); experiment: Inhibition of CK1gamma1 (unknown origin) in presence of 5 mM ATP
# [12] = target: Mitogen-activated protein kinase 15 (Homo sapiens) (UniProt Q8TD08); experiment: Inhibition of human recombinant N-terminal FLAG-tagged ERK7 expressed in Sf9 insect cells at 0.1 uM incubated for 60 mins by TR-FRET based LanthaScreen Eu kinase binding assay relative to control
# [13] = target: Insulin receptor (Homo sapiens) (UniProt P06213); experiment: Inhibition of human recombinant INSR using KKKSPGEYVNIEF as substrate at 1 uM incubated for 40 mins in presence of [gamma32P]-ATP by scintillation counting method relative to control
# [14] = target: Casein kinase I isoform gamma-2 (Homo sapiens, UniProt P78368); experiment: Inhibition of CK1gamma2 (unknown origin) in presence of 5 mM ATP
# [15] = species: Homo sapiens; experiment: Selectivity ratio of IC50 for CDK6 (unknown origin) in presence of 5 mM ATP to IC50 for Inhibition of recombinant full length human N-terminal GST-fused CDK9 (1 to 372 residues)/His-tagged CyclinT1 (1 to 726 residues) expressed in baculovirus infected insect cells
# [16] = species: Homo sapiens; experiment: Selectivity ratio of IC50 for CDK5 (unknown origin) in presence of 5 mM ATP to IC50 for Inhibition of recombinant full length human N-terminal GST-fused CDK9 (1 to 372 residues)/His-tagged CyclinT1 (1 to 726 residues) expressed in baculovirus infected insect cells
# [17] = species: Homo sapiens; experiment: Selectivity ratio of IC50 for recombinant full length human CDK2/CyclinE expressed in insect cells to IC50 for Inhibition of recombinant full length human N-terminal GST-fused CDK9 (1 to 372 residues)/His-tagged CyclinT1 (1 to 726 residues) expressed in baculovirus infected insect cells
# [18] = Drug metabolism in human liver microsomes assessed as (1S,3R)-3-acetamido-N-(5-fluoro-4-(5-(3-hydroxy-2,2-dimethylpropyl)-1H-pyrazol-4-yl)pyridin-2-yl)cyclohexanecarboxamide formation at 10 uM measured after 1 hr in presence of NADPH by LC-UV-MS analysis; format: ADME, Microsome
# [19] = Drug metabolism in human hepatocytes assessed as (1S,3R)-3-acetamido-N-(5-fluoro-4-(5-(3-hydroxy-2,2-dimethylpropyl)-1H-pyrazol-4-yl)pyridin-2-yl)cyclohexanecarboxamide metabolite formation; format: ADME, cell-based, Hepatocyte
# [20] = Clearance in mouse plasma at […], iv; format: ADME; conditions: dose 2.4 µmol/kg
# [21] = target: Cyclin-dependent kinase 1/cyclin B1 (Homo sapiens) (UniProt P06493+P14635); experiment: Inhibition of human recombinant full-length CDK1/CyclinB expressed in Sf21 insect cells using Histone H1 as substrate at 1 uM incubated for 40 mins in presence of [gamma32P]-ATP by scintillation counting method relative to control
# [22] = target: T1, CDK9/cyclin T1 (Homo sapiens, UniProt O60563+P50750); experiment: Inhibition of human recombinant full-length CDK9/CyclinT1 expressed in Sf21 insect cells using PDKtide as substrate at 1 uM incubated for 40 mins in presence of [gamma32P]-ATP by scintillation counting method relative to control
# [23] = target: T1, CDK9/cyclin T1; experiment: Binding affinity to human CDK9/CyclinT assessed as dissociation rate constant by surface plasmon resonance analysis; format: protein-complex assay
# [24] = target: CDK9/cyclin T1 (Homo sapiens, UniProt P50750); experiment: Binding affinity to human CDK9/CyclinT assessed as equilibrium dissociation constant by surface plasmon resonance analysis; format: protein-complex assay
# [25] = Solubility of compound in pH 4 0.1 M acetate buffer using crystalline form of sample; format: physicochemical
# [26] = Solubility of compound in pH 7.4 PBS buffer using crystalline form of sample; format: physicochemical
# [27] = Drug metabolism in human liver microsome assessed as 4-(4-(2-((1S,3R)-3-acetamidocyclohexanecarboxamido)-5-chloropyridin-4-yl)-1H-pyrazol-5-yl)butanoic acid formation at 10 uM measured after 1 hr in presence of NADPH by LC-UV-MS analysis; format: ADME; conditions: microsomes
# [28] = Drug metabolism in human liver microsome assessed as (1S,3R)-3-acetamido-N-(5-chloro-4-(5-(4-hydroxybutyl)-1H-pyrazol-4-yl)pyridin-2-yl)cyclohexanecarboxamide formation at 10 uM measured after 1 hr in presence of NADPH by LC-UV-MS analysis; format: ADME; conditions: microsomes
# [29] = Half-life in Beagle dog at 5.2 umol/kg, iv administered over 0.25 hrs formulated as solution in 5% DMSO; format: ADME, organism-based, Canis lupus familiaris; conditions: in vivo, dose 5.2 µmol/kg
# Sequence of Cyclin-dependent kinase 1/cyclin B1 (Homo sapiens) (P06493 whole entry, looked up): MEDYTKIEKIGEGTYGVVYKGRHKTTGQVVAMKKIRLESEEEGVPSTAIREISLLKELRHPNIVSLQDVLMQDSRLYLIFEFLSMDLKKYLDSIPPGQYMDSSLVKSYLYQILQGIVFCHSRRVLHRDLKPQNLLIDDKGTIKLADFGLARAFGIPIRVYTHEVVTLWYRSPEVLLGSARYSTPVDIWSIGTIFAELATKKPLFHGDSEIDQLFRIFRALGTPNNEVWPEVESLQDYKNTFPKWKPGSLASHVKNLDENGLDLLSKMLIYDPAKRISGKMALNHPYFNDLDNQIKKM
# Sequence of Cyclin-dependent kinase 1/cyclin B1 (Homo sapiens) (P14635 whole entry, looked up): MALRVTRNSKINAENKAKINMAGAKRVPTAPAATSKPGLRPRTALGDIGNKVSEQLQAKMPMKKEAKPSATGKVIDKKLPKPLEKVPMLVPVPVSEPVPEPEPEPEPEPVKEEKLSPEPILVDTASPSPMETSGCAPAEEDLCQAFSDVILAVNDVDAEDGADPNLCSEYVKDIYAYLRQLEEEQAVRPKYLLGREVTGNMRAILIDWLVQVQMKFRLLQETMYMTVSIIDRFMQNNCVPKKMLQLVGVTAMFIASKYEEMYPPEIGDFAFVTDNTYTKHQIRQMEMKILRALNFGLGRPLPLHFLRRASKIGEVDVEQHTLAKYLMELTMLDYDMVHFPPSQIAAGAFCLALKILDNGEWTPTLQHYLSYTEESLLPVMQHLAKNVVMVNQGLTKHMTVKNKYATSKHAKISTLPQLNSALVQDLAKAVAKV
# Sequence of Mitogen-activated protein kinase 15 (Homo sapiens) (Q8TD08 whole entry): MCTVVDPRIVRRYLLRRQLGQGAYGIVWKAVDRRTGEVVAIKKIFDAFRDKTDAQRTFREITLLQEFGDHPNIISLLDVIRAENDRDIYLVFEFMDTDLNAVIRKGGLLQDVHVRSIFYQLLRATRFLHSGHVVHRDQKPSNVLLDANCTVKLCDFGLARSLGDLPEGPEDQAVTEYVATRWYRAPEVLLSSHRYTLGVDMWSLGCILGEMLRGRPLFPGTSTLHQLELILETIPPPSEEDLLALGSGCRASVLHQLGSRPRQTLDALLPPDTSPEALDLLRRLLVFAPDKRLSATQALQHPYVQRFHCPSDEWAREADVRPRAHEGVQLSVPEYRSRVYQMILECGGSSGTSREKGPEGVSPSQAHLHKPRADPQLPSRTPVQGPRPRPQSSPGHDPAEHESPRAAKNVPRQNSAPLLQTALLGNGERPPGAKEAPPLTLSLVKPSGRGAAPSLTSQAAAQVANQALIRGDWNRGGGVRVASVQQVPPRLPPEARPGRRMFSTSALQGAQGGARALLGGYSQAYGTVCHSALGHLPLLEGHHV
# Sequence of Casein kinase I isoform gamma-2 (P78368 whole entry, the tested form may be a part, canonical isoform): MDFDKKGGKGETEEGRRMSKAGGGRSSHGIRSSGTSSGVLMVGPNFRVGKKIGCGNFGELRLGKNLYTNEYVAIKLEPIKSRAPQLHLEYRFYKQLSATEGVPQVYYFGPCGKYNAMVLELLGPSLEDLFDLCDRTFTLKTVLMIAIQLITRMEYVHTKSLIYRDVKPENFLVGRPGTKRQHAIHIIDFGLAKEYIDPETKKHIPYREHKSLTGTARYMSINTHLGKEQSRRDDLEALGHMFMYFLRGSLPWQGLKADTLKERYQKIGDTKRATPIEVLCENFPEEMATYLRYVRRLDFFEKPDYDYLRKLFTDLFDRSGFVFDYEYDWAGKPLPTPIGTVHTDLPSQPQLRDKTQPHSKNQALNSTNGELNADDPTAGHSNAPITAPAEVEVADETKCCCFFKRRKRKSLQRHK
# Sequence of Insulin receptor (Homo sapiens) (P06213 28-758 limits assumed): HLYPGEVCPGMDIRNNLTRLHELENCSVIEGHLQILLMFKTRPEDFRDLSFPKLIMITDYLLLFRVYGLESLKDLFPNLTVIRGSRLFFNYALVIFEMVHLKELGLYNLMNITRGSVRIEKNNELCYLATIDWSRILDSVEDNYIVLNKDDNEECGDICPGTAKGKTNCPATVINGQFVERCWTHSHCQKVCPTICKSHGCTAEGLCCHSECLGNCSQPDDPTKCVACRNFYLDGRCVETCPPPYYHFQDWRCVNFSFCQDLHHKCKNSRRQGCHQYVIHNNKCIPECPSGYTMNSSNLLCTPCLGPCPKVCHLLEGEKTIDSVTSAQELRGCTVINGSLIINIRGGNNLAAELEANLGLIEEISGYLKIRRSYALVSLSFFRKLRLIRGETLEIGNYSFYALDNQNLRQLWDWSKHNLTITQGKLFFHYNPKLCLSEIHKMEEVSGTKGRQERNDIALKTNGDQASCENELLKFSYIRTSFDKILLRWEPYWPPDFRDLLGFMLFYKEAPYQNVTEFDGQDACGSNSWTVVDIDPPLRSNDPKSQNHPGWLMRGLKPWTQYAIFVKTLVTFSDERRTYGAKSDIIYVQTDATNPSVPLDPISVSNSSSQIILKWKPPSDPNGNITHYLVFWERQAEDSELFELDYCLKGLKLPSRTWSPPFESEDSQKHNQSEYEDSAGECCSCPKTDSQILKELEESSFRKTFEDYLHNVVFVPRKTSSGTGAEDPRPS
# Sequence of Insulin receptor (Homo sapiens) (P06213 763-1382 limits assumed): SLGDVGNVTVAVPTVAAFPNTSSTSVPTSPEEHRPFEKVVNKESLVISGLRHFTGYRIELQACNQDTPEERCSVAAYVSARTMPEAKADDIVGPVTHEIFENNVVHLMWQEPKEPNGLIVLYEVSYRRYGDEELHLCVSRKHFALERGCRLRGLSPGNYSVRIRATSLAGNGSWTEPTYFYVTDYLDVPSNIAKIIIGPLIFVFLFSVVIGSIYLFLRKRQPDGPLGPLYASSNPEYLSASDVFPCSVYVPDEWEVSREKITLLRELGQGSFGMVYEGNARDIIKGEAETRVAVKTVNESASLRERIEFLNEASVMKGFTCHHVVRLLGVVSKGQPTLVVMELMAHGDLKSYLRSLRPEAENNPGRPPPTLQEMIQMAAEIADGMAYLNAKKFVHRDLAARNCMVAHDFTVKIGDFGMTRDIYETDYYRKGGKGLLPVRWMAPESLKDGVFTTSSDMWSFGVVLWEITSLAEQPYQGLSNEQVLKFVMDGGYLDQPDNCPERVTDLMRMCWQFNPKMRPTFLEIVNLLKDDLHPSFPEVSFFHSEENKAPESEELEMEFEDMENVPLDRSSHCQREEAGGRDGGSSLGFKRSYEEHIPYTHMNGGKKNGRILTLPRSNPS
# Sequence of Cyclin-dependent kinase 9 (Mus musculus) (Q99J95 whole entry): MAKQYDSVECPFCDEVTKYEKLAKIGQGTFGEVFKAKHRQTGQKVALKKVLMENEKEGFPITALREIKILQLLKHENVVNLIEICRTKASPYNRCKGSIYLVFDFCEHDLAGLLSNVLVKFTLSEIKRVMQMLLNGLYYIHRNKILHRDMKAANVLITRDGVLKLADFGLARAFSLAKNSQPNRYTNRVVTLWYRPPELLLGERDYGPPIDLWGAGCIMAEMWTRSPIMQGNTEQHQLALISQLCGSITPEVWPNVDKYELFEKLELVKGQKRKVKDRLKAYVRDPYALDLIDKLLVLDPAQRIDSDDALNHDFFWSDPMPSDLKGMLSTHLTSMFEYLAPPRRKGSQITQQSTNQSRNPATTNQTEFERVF
# Sequence of Casein kinase I isoform gamma-1 (Q9HCP0 whole entry, canonical isoform): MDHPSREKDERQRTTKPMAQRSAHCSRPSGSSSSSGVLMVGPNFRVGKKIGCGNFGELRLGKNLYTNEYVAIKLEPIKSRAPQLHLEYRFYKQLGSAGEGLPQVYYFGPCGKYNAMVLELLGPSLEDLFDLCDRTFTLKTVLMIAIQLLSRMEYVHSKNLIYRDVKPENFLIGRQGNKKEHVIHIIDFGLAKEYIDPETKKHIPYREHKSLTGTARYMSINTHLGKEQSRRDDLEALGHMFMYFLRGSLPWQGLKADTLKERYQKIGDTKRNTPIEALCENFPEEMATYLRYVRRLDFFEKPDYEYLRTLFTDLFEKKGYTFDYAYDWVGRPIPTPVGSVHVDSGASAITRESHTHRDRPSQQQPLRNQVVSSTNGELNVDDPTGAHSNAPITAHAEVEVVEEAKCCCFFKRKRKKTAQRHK
# T1 sequence (O60563 whole entry): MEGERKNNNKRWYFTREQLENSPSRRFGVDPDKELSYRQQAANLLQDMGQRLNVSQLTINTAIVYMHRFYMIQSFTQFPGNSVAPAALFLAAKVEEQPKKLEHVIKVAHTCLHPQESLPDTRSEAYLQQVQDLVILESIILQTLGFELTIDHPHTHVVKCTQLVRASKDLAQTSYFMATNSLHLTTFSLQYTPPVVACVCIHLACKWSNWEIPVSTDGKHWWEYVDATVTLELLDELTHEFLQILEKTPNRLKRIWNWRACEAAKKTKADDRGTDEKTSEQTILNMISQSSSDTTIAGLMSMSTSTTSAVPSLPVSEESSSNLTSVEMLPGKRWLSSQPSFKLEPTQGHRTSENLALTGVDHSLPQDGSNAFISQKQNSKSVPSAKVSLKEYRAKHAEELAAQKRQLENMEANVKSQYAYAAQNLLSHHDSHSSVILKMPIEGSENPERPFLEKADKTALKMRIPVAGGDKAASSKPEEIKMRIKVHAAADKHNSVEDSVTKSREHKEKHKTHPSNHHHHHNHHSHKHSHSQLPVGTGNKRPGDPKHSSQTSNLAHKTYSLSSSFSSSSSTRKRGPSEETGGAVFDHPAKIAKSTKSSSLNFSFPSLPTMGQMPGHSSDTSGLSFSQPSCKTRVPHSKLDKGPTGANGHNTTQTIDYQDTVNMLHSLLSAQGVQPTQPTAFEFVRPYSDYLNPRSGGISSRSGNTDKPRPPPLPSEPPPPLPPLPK
# T1 sequence (P50750 whole entry): as the sequence (Q99J95 whole entry) above, with T17S, K37R, Q40K, K258N, F262Y counted along it
# Sequence of CDK9/cyclin T1 (Homo sapiens, UniProt P50750) (O60563 whole entry): as the sequence (O60563 whole entry) above
# Sequence of CDK9/cyclin T1 (Homo sapiens, UniProt P50750) (P50750 whole entry): as the sequence (Q99J95 whole entry) above, with T17S, K37R, Q40K, K258N, F262Y counted along it
structure (smiles),measurement,setting,value
CC(=O)N[C@@H]1CCC[C@H](C(=O)Nc2cc(-c3cnn4c3CC(C)(C)C4)c(Cl)cn2)C1 [ZEMIRCICLIB],inhibition,[1],Dose-dependent effect
same,Activity,[2],Active
same,Activity,[3],100%
same,inhibition in vivo at 5 mg/kg,[4],97%
same,Drug metabolism,[5],Metabolite_Detected
same,Drug metabolism,[6],Metabolite_Detected
same,Drug metabolism,[7],Metabolite_Detected
same,half-life,[8],39.6 min
same,half-life,[9],10.8 min
same,hepatocyte CLint,[10],32 µL/min/1e6 cells
same,pIC50,[11],5.26
same,inhibition,[12],83%
same,inhibition,[13],83%
same,pIC50,[14],5.18
CC(=O)N[C@@H]1CCC[C@H](C(=O)Nc2cc(-c3cnn4c3CC(C)(C)C4)c(F)cn2)C1,Ratio IC50,[15],16
same,Ratio IC50,[16],16
same,Ratio IC50,[17],16
same,Drug metabolism,[18],Metabolite_Detected
same,Drug metabolism,[19],Metabolite_Detected
same,clearance,[20],70 mL/min/kg
same,inhibition,[21],100%
same,inhibition,[22],100%
same,koff,[23],569 10^-6/s
same,pKd,[24],9.91
CC(=O)N[C@@H]1CCC[C@H](C(=O)Nc2cc(-c3cnn4c3CCCC4)c(Cl)cn2)C1,solubility thermodynamic,[25],210 µg/mL
same,solubility thermodynamic,[26],94 µg/mL
same,Drug metabolism,[27],Metabolite_Detected
same,Drug metabolism,[28],Metabolite_Detected
same,half-life,[29],30 min
same,inhibition,[21],96%
same,inhibition,[22],98%
